The term Ki denotes the dissociation constant of the complex between target and ligand, obtained from inhibition or displacement.

This experiment is described as follows: Compound was tested in vitro for binding affinity for 5-hydroxytryptamine 1C receptor.

Take `NC[C@@H]1O[C@H](c2ccccc2)Cc2c1ccc(Br)c2O`: the inhibitory constant (Ki) came out at 200 nM. On to `Cc1ccc2c(c1O)C[C@@H](C1CCCCC1)O[C@H]2CN`, for which the affinity corresponds to a Ki of 58 nM.

These data come from BindingDB's records for doi:10.1021/jm00114a002 (Abbott Laboratories, 1991).
